Tested on: Candida albicans
Assay: Fungal load: patient with severe candidiasis (present-tense example)
Type: in vivo, human
Conditions: two weeks, before YG Product
Protocol: The following present-tense examples are intended to illustrate and summarize the teachings of the preceding examples that describe actual clinical data with over 100 AIDS and ARC patients.
The candidiasis clears. A dose is administered by one of the following routes: intradermally, subcutaneously, orally, transmucosally, sublingually, or transdermally.

OC(Cn1cncn1)(Cn1cncn1)c1ccc(F)cc1F [Fluconazole]
effect of antifungal treatment alone on severe candidiasis: without effect
